Source: US20220324835A1 (Nurix Therapeutics, Inc., priority 2018, published 2022)

Assays:
[1] = target: T1, Cbl-b (Homo sapiens, UniProt Q13191); experiment: Cbl-b activity assay (Cbl-b inhibition assay), TR-FRET of Cbl-b interaction with UbcH5B-Ub; type: biochemical; conditions: assay buffer with 100 mM NaCl, 60 nM Src kinase; read-out: Cbl-b activity IC50
Description: The ability of candidate compounds to inhibit Cbl-b activity was measured by monitoring the interaction of Cbl-b with UbcH5B-Ub in the presence of the candidate compound.
Fluorescently labeled UbcH5B-Ub was prepared by conjugating ubiquitin (Ub), labeled at its N-terminus with Bodipy-Fluorescein, to UbcH5B, an E2 enzyme, harboring a cysteine to lysine mutation at position 85. […] After incubation in the presence of the candidate compound, the plate was incubated for an additional 1.5 hours in the presence of 60 nM Src kinase with 1 mM ATP and 5 mM MgCl2 (final concentrations). […] The plate was incubated for 1 hour.
Column marked with an asterisk (*) were tested as described above with assay buffer containing 50 mM NaCl instead of 100 mM NaCl and 30 nM Src kinase instead of 60 nM Src kinase. The resulting data for the Cbl-b binding assay was solvent corrected and double referenced prior to analysis. All data were globally fit to a steady-state affinity and kinetic binding model where applicable). Fit parameters were derived from a 1:1 binding model using the Biacore T200 Evaluation Software V2.0 (GE Healthcare) (Table 2).

[2] = target: T1, Cbl-b; experiment: Cbl-b inhibition assay (Cbl-b activity assay, FRET, Biological Example 1; 100 mM NaCl, 60 nM Src kinase); type: biochemical; conditions: upper bound stated in text lists; read-out: IC50 values in the Cbl-b inhibition assay of Biological Example 1
Description: FIG. 1A and FIG. 1B show a series of diagrams depicting the activity assay utilized to assay inhibition of Cbl-b activity by a Cbl-b inhibitor. FIG. 1A: The activity assay mixture comprises an N-terminal biotinylated Avi-tagged Cbl-b, an E2 enzyme (i.e., UbcH5B) irreversibly conjugated to Bodipy-Fluorescein tagged ubiquitin (i.e., UbcH5B-Ub), a Src kinase, streptavidin-terbium, and assay buffer. Phosphorylation of Cbl-b by the Src kinase allows UbcH5B-Ub to bind to Cbl-b and bring the Bodipy-Fluorescein tagged ubiquitin in proximity to the streptavidin-terbium bound to the N-terminal biotinylated Avi-tagged Cbl-b. […] FIG. 1B: In the presence of a Cbl-b inhibitor, such as one described herein, Cbl-b is unable to bind UbcH5B-Ub. The lack of a FRET signal indicates Cbl-b is inhibited by the Cbl-b inhibitor. Ub indicates ubiquitin; N-Avi indicates biotinylated Avi-tag at the N-terminus of Cbl-b; inhibitor indicates Cbl-b inhibitor.
The lack of a FRET signal indicates Cbl-b is inhibited by the Cbl-b inhibitor. In FIG. 1A and FIG. 1B, Ub indicates ubiquitin; N-Avi indicates biotinylated Avi-tag at the N-terminus of Cbl-b; and inhibitor indicates Cbl-b inhibitor.

T1 sequence (Q13191 36-427): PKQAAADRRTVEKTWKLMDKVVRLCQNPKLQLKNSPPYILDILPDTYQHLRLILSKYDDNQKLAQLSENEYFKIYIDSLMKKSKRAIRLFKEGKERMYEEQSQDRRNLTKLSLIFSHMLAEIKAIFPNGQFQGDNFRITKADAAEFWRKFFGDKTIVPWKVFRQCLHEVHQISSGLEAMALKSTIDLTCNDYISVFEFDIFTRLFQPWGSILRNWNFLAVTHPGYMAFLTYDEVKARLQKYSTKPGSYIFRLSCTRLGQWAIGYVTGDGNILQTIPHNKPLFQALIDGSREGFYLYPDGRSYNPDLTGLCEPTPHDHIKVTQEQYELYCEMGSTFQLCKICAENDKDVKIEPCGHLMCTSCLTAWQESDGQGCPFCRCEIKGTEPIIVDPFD

Compound | IC50 [1] | IC50 [2]
Cn1cnnc1CC1(c2cccc(N3Cc4c(cc(CN5CC[C@@H](F)[C@@H](F)C5)cc4C(F)(F)F)C3=O)c2)COC1 (relative stereo) [Example 634, 6-((cis-3,4-difluoropiperidin-1-yl)methyl)-2-(3-(3-((4-methyl-4H-1,2,4-triazol-3-yl)methyl)oxetan-3-yl)phenyl)-4-(trifluoromethyl)isoindolin-1-one] | < 0.1 µM | ≤ 0.1 µM
Cn1cnnc1CC1(c2cccc(N3Cc4c(cc(CN5CC[C@@H]6OCC[C@@H]6C5)cc4C(F)(F)F)C3=O)c2)COC1 (relative stereo) [Example 708, rel-6-[(3aR,7aS)-hexahydro-2H-furo[3,2-c]pyridin-5-ylmethyl]-2-(3-{3-[(4-methyl-1,2,4-triazol-3-yl)methyl]oxetan-3-yl}phenyl)-4-(trifluoromethyl)-3H-isoindol-1-one] | < 0.1 µM | ≤ 0.1 µM
Cn1cnnc1CC1(c2cccc(N3Cc4c(cc(CN5CC[C@@H]6NCCO[C@@H]6C5)cc4C(F)(F)F)C3=O)c2)COC1 (relative stereo) [Example 713, rel-6-[(4aR,8aS)-octahydropyrido[3,4-b][1,4]oxazin-6-ylmethyl]-2-(3-{3-[(4-methyl-1,2,4-triazol-3-yl)methyl]oxetan-3-yl}phenyl)-4-(trifluoromethyl)-3H-isoindol-1-one] | < 0.1 µM | ≤ 0.1 µM
CN1CC[C@@H](O)[C@H](Cc2cc3c(c(C(F)(F)F)c2)CN(c2cccc(C4(Cc5nncn5C)COC4)c2)C3=O)C1 (single isomer, unassigned) [Compound 533] | < 0.1 µM | ≤ 0.1 µM
CC(c1cc(C(=O)Nc2cccc(C3(Cc4nncn4C)COC3)c2)nc(C2CC2)n1)N1CCC2(CC2)C1 (stereo in doubt) [Example 592b, (S)-6-(1-(5-azaspiro[2.4]heptan-5-yl)ethyl)-2-cyclopropyl-N-(3-(3-((4-methyl-4H-1,2,4-triazol-3-yl)methyl)oxetan-3-yl)phenyl)pyrimidine-4-carboxamide] | < 0.1 µM | ≤ 0.1 µM
C[C@H](Sc1nncn1C)c1cccc(NC(=O)c2cccc(N(C)C)c2)c1 [Compound 26, (S)-3-(Dimethylamino)-N-(3-(1-((4-methyl-4H-1,2,4-triazol-3-yl)thio)ethyl)phenyl)benzamide] | > 10 µM | ≤ 10 µM
C[C@H](Sc1nncn1C)c1cccc(NC(=O)c2cccc(N)c2)c1 [Compound 58, (S)-3-amino-N-(3-(1-((4-methyl-4H-1,2,4-triazol-3-yl)thio)ethyl)phenyl)benzamide] | 3 to 10 µM | ≤ 10 µM
C[C@H](Sc1nncn1C)c1cccc(NC(=O)c2cc3ccccc3c(C(F)(F)F)n2)c1 [Compound 63, (S)-N-(3-(1-((4-methyl-4H-1,2,4-triazol-3-yl)thio)ethyl)phenyl)-1-(trifluoromethyl)isoquinoline-3-carboxamide] | 3 to 10 µM | ≤ 10 µM
CC(Sc1nncn1C)c1ccc(OC(F)(F)F)c(NC(=O)c2cccc(C(F)(F)F)n2)c1 (stereo not drawn) [Compound 94, N-(5-(1-((4-methyl-4H-1,2,4-triazol-3-yl)thio)ethyl)-2-(trifluoromethoxy)phenyl)-6-(trifluoromethyl)picolinamide] | 1 to 3 µM | ≤ 10 µM
C[C@H](Sc1nncn1C)c1ccnc(NC(=O)c2ccc(Cl)c(C(F)(F)F)n2)c1 [Compound 106, (S)-5-chloro-N-(4-(1-((4-methyl-4H-1,2,4-triazol-3-yl)thio)ethyl)pyridin-2-yl)-6-(trifluoromethyl)picolinamide] | 1 to 3 µM | ≤ 10 µM
C[C@H](Sc1nncn1C)c1ccnc(NC(=O)c2noc3ccccc23)c1 [Compound 115, (S)-N-(4-(1-((4-methyl-4H-1,2,4-triazol-3-yl)thio)ethyl)pyridin-2-yl)benzo[d]isoxazole-3-carboxamide] | 3 to 10 µM | ≤ 10 µM
C[C@H](Sc1nncn1C)c1ccnc(NC(=O)c2csc(C(F)(F)F)n2)c1 [Compound 118, N-[4-[(1S)-1-[(4-methyl-1,2,4-triazol-3-yl)sulfanyl]ethyl]-2-pyridyl]-2-(trifluoromethyl)thiazole-4-carboxamide] | 1 to 3 µM | ≤ 10 µM
C[C@H](Sc1nncn1C)c1ccnc(NC(=O)c2cc(Br)cc(C(F)(F)F)n2)c1 [Compound 119, 4-bromo-N-[4-[(1S)-1-[(4-methyl-1,2,4-triazol-3-yl)sulfanyl]ethyl]-2-pyridyl]-6-(trifluoromethyl)pyridine-2-carboxamide] | 0.301 to 1 µM | ≤ 1 µM
CC(Sc1nncn1C)c1cncc(NC(=O)c2cccc(C(F)(F)F)n2)c1 (stereo not drawn) [Compound 127, N-[5-[1-[(4-methyl-1,2,4-triazol-3-yl)sulfanyl]ethyl]-3-pyridyl]-6-(trifluoromethyl)pyridine-2-carboxamide] | 3 to 10 µM | ≤ 10 µM
Cc1c[nH]nc1S[C@@H](C)c1ccnc(NC(=O)c2ccc3ccccc3n2)c1 [Compound 128a, (S)-N-(4-(1-((4-methyl-1H-pyrazol-3-yl)thio)ethyl)pyridin-2-yl)quinoline-2-carboxamide] | 1 to 3 µM | ≤ 10 µM
Cc1cn(C)c(SC(C)c2ccnc(NC(=O)c3ccc4ccccc4n3)c2)n1 (stereo not drawn) [Compound 129, N-(4-(1-((1,4-dimethyl-1H-imidazol-2-yl)thio)ethyl)pyridin-2-yl)quinoline-2-carboxamide] | > 10 µM | ≤ 10 µM
CC(Sc1nncn1C)c1cc(NC(=O)c2ccc3ccccc3n2)c2c(c1)C(C)(O)CC2 (stereo not drawn) [Compound 131, N-(1-hydroxy-1-methyl-6-(1-(4-methyl-4H-1,2,4-triazol-3-ylthio)ethyl)-2,3-dihydro-1H-inden-4-yl)quinoline-2-carboxamide] | 3 to 10 µM | ≤ 10 µM
C[C@H](Sc1nncn1C)c1cccc(NC(=O)c2cc(C(=O)N3CCC[C@H]3C)ccn2)c1 [Compound 142, N-(3-((S)-1-((4-methyl-4H-1,2,4-triazol-3-yl)thio)ethyl)phenyl)-4-((R)-2-methylpyrrolidine-1-carbonyl)picolinamide] | > 10 µM | ≤ 10 µM
C[C@H](Sc1nncn1C)c1cccc(NC(=O)c2cc(C(=O)N3CCC(S(C)(=O)=O)C3)ccn2)c1 (stereo partly drawn) [Compound 158, N-(3-((A)-1-((4-methyl-4H-1,2,4-triazol-3-yl)thio)ethyl)phenyl)-4-(3-(methylsulfonyl)pyrrolidine-1-carbonyl)picolinamide] | 3 to 10 µM | ≤ 10 µM
CC(Sc1nncn1C)c1cccc(N2Cc3ccc(C(C)(C)O)cc3C2=O)c1 (stereo not drawn) [Compound 165, 6-(1-hydroxy-1-methyl-ethyl)-2-[3-[1-[(4-methyl-1,2,4-triazol-3-yl)sulfanyl]ethyl]phenyl]isoindolin-1-one] | 3 to 10 µM | ≤ 10 µM
C[C@H](Cc1nncs1)c1cccc(N2Cc3c(cccc3C(F)(F)F)C2=O)c1 [Compound 368, (R)-2-(3-(1-(1,3,4-thiadiazol-2-yl)propan-2-yl)phenyl)-4-(trifluoromethyl)isoindolin-1-one] | 0.301 to 1 µM | –
C[C@H](Cc1nncn1C)c1cccc(N2Cc3c(ccnc3C(C)(C)F)C2=O)c1 [Compound 373, 4-(2-fluoropropan-2-yl)-2-[3-[(2R)-1-(4-methyl-4H-1,2,4-triazol-3-yl)propan-2-yl]phenyl]-1H,2H,3H-pyrrolo[3,4-c]pyridin-1-one] | 0.301 to 1 µM | –
Cn1cnnc1C[C@@H](c1cccc(N2Cc3c(cccc3C(F)(F)F)C2=O)c1)C(F)(F)F [Compound 471b, (S)-2-(3-(1,1,1-trifluoro-3-(4-methyl-4H-1,2,4-triazol-3-yl)propan-2-yl)phenyl)-4-(trifluoromethyl)isoindolin-1-one] | 3 to 10 µM | –
Cn1cnnc1[C@@H](F)[C@@](C)(F)c1cccc(N2Cc3c(cc(C4CC4)cc3C(F)(F)F)C2=O)c1 [Compound 481b, 6-cyclopropyl-2-[3-[(1R,2S)-1,2-difluoro-1-(4-methyl-4H-1,2,4-triazol-3-yl)propan-2-yl]phenyl]-4-(trifluoromethyl)-2,3-dihydro-1H-isoindol-1-one] | 1 to 3 µM | –
CCn1cnnc1CC1(c2cccc(NC(=O)c3cc(C)nc(C4CC4)n3)c2)COC1 [Example 705, 2-cyclopropyl-N-(3-{3-[(4-ethyl-1,2,4-triazol-3-yl)methyl]oxetan-3-yl}phenyl)-6-methylpyrimidine-4-carboxamide] | 3 to 10 µM | –
